ChEMBL document CHEMBL5137035 (Eur J Med Chem, 2022)
pIC50: −log10 of the molar value.

Experiments:
[1] = target: T1, Dihydroorotate dehydrogenase (quinone), mitochondrial (Homo sapiens, UniProt Q02127); assay: Inhibition of human N-terminal SUMO-tagged DHODH expressed in Escherichia coli BL21(DE3) at 1 uM using dihydroorotate as substrate by DCIP based microplate reader analysis relative to control
[2] = target: T1, Dihydroorotate dehydrogenase (quinone), mitochondrial; assay: Inhibition of human N-terminal SUMO-tagged DHODH expressed in Escherichia coli BL21(DE3) at 100 nM using dihydroorotate as substrate by DCIP based microplate reader analysis relative to control
[3] = target: T1, Dihydroorotate dehydrogenase (quinone), mitochondrial; assay: Inhibition of human N-terminal SUMO-tagged DHODH expressed in Escherichia coli BL21(DE3) using dihydroorotate substrate by DCIP based microplate reader analysis
Raji = assay: Antiproliferative activity against human Raji cells assessed as cell growth inhibition measured after 96 hrs by MTT assay; format: functional, cell-based
A-375 = assay: Antiproliferative activity against human A375 cells expressing human DHODH assessed as reduction in cell viability measured after 96 hrs by MTT assay; format: functional, cell-based; settings: A-375, 96 h
HCT-116 [4] = assay: Antiproliferative activity against human HCT-116 cells expressing human DHODH assessed as reduction in cell viability measured after 96 hrs by MTT assay; format: functional, cell-based; settings: HCT-116, 96 h
Kasumi 1 = assay: Antiproliferative activity against human Kasumi 1 cells expressing human DHODH assessed as reduction in cell viability measured after 96 hrs by MTT assay; format: functional, cell-based; settings: Kasumi 1, 96 h
KG-1 = assay: Antiproliferative activity against human KG-1 cells expressing human DHODH assessed as reduction in cell viability measured after 96 hrs by MTT assay; format: functional, cell-based; settings: KG-1, 96 h
U-937 = assay: Antiproliferative activity against human U-937 cells expressing human DHODH assessed as reduction in cell viability measured after 96 hrs by MTT assay; format: functional, cell-based; settings: U-937, 96 h
SUD4 = assay: Antiproliferative activity against human SU-DHL-4 cells expressing human DHODH assessed as reduction in cell viability measured after 96 hrs by MTT assay; format: functional, cell-based; settings: SU-DHL-4, 96 h
[5] = Cytotoxicity against human HL7702 cells expressing human DHODH assessed as reduction in cell viability measured after 96 hrs by MTT assay; format: toxicity, cell-based; settings: HL7702 (L02) cells expressing human DHODH
[6] = Cytotoxicity against human HCoEpiC cells expressing human DHODH assessed as reduction in cell viability measured after 96 hrs by MTT assay; format: toxicity, cell-based
[7] = Acute toxicity in BALB/c mouse assessed as decrease in body weight at 300 mg/kg, po measured for 14 days; format: organism-based; settings: in vivo, 336 h, time 14 day
[8] = Toxicity in BALB/c mouse assessed as animal death at 300 mg/kg, po measured for 14 days; format: organism-based; settings: in vivo, 336 h, time 14 day
[9] = Toxicity in BALB/c mouse xenografted with HCT-116 cells assessed as side effect at 30 mg/kg, po and measured at 18 day; format: organism-based; settings: in vivo, 432 h
[10] = Toxicity in BALB/c mouse xenografted with HCT-116 cells assessed as animal death at 30 mg/kg, po and measured at 18 day; format: organism-based; settings: in vivo, 432 h
[11] = Acute toxicity in BALB/c mouse assessed as animal death at 400 mg/kg, po measured at 2 days; format: organism-based; settings: in vivo, 48 h, time 2 day
[12] = Toxicity in BALB/c mouse assessed as adverse effect at 400 mg/kg, po measured for 14 days; format: organism-based; settings: in vivo, 336 h, time 14 day
[13] = Hepatotoxicity in BALB/c mouse assessed as change in blood ALP level at 400 mg/kg, po measured after 14 days by biochemical assay; format: toxicity, organism-based; settings: in vivo, 336 h, time 14 day
[14] = Renal toxicity in BALB/c mouse assessed as change in blood uric acid level at 400 mg/kg, po measured after 14 days by biochemical assay; format: organism-based; settings: in vivo, 336 h, time 14 day
[15] = Toxicity in BALB/c mouse assessed as histopathological changes in heart at 400 mg/kg, po measured after 14 days by H and E staining analysis; format: organism-based; settings: in vivo, 336 h, time 14 day
[16] = Toxicity in BALB/c mouse assessed as histopathological changes in liver at 400 mg/kg, po measured after 14 days by H and E staining analysis; format: organism-based; settings: in vivo, 336 h, time 14 day
[17] = Toxicity in BALB/c mouse assessed as histopathological changes in spleen at 400 mg/kg, po measured after 14 days by H and E staining analysis; format: organism-based; settings: in vivo, 336 h, time 14 day
[18] = Toxicity in BALB/c mouse assessed as histopathological changes in lungs at 400 mg/kg, po measured after 14 days by H and E staining analysis; format: organism-based; settings: in vivo, 336 h, time 14 day
[19] = Toxicity in BALB/c mouse assessed as histopathological changes in kidney at 400 mg/kg, po measured after 14 days by H and E staining analysis; format: organism-based; settings: in vivo, 336 h, time 14 day
HCT-116 [20] = assay: Antitumor activity against human HCT-116 cells xenografted in nude mouse assessed as tumor growth inhibition at 30 mg/kg, po; format: functional; settings: read-out: TGI
[21] = Acute toxicity in BALB/c mouse assessed as average body weight at 300 mg/kg, po measured after 14 days; format: organism-based; settings: in vivo, 336 h, time 14 day
[22] = Hepatotoxicity in BALB/c mouse assessed as change in blood ALP level at 300 mg/kg, po measured after 14 days by biochemical assay; format: toxicity, organism-based; settings: in vivo, 336 h, time 14 day
[23] = Hepatotoxicity in BALB/c mouse assessed as change in blood ALT level at 300 mg/kg, po measured after 14 days by biochemical assay; format: toxicity, organism-based; settings: in vivo, 336 h, time 14 day
[24] = Hepatotoxicity in BALB/c mouse assessed as change in blood AST level at 300 mg/kg, po measured after 14 days by biochemical assay; format: toxicity, organism-based; settings: in vivo, 336 h, time 14 day
[25] = Renal toxicity in BALB/c mouse assessed as change in blood uric acid level at 300 mg/kg, po measured after 14 days by biochemical assay; format: organism-based; settings: in vivo, 336 h, time 14 day

T1 sequence (Q02127 whole entry): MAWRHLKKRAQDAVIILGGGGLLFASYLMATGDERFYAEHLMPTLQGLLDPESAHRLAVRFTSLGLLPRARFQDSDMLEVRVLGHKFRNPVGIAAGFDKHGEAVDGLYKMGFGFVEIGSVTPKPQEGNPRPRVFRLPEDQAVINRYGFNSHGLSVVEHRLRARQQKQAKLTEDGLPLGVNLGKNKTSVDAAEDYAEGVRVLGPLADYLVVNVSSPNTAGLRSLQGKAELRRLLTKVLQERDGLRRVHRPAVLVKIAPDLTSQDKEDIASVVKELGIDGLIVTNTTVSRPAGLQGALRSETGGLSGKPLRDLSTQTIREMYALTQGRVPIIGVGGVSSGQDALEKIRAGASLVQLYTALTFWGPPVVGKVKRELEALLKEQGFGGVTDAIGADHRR

inhibition [1] [%]	inhibition [2] [%]	pIC50 [3]	SMILES	further results
71.2	–	–	C/C(O)=C(\C#N)C(=O)Nc1ccc(C(F)(F)F)cc1	–
93.6	68.2	7.46	CCCOc1cc(NC(=O)/C(C#N)=C(/C)O)c(F)cc1-c1cccc(OC)c1	–
97.3	82.9	7.56	CCC(C)Oc1cc(NC(=O)/C(C#N)=C(/C)O)c(F)cc1-c1ccccc1F (centres undefined)	–
89.2	48.4	–	COc1cccc(-c2ccc(NC(=O)/C(C#N)=C(/C)O)cc2OC)c1	–
97.5	80.1	7.52	CCC(C)Oc1cc(NC(=O)/C(C#N)=C(/C)O)c(F)cc1-c1ccc(F)c(F)c1 (centres undefined)	–
98	85.3	7.65	CCC(C)Oc1cc(NC(=O)/C(C#N)=C(/C)O)c(F)cc1-c1cccc(Cl)c1C (centres undefined)	–
91.8	57.7	7.28	COc1cccc(-c2cc(F)c(NC(=O)/C(C#N)=C(/C)O)cc2OC)c1	–
97.2	83.6	7.57	CCC(C)Oc1cc(NC(=O)/C(C#N)=C(/C)O)c(F)cc1-c1cccc(F)c1 (centres undefined)	–
98.9	87.5	7.70	CCC(C)Oc1cc(NC(=O)/C(C#N)=C(/C)O)c(F)cc1-c1cccc(Cl)c1 (centres undefined)	–
99.7	95	8.01	CCC(C)Oc1cc(NC(=O)/C(C#N)=C(/C)O)c(F)cc1-c1cccc2ccccc12 (centres undefined)	pIC50 (Raji): 6.67
93.6	64	7.37	COc1cccc(-c2cc(F)c(NC(=O)/C(C#N)=C(/C)O)cc2OCC2CCCCC2)c1	–
99.2	91.2	8.04	CCC(C)Oc1cc(NC(=O)/C(C#N)=C(/C)O)c(F)cc1-c1cccc(OC)c1 (centres undefined)	pIC50 (Raji): 6.21
93.1	65.2	7.38	CCOc1cc(NC(=O)/C(C#N)=C(/C)O)c(F)cc1-c1cccc(OC)c1	–
89.7	52.3	–	CCC(C)Oc1cc(NC(=O)/C(C#N)=C(/C)O)c(F)cc1-c1ccc(F)nc1 (centres undefined)	–
–	–	–	COc1cccc(-c2cc(F)c(Nc3ncccc3C(=O)O)c(F)c2)c1 [ASLAN-003]	pIC50 (Raji): 6.57
98.5	87.7	7.69	CCC(C)Oc1cc(NC(=O)/C(C#N)=C(/C)O)c(F)cc1-c1ccnc(F)c1 (centres undefined)	–
89.8	48.3	–	COc1cccc(-c2cc(F)c(NC(=O)/C(C#N)=C(/C)O)cc2OCc2ccccc2F)c1	–
96.1	72.5	7.42	CCC(C)Oc1cc(NC(=O)/C(C#N)=C(/C)O)c(F)cc1-c1ccc(F)cc1 (centres undefined)	–
99.2	92.4	7.96	CCC(C)Oc1cc(NC(=O)/C(C#N)=C(/C)O)c(F)cc1-c1cccc(OC(F)(F)F)c1 (centres undefined)	pIC50 (Raji): 6.89

inhibition [1] [%]	inhibition [2] [%]	pIC50 [3]	SMILES	further results
96.6	78.6	7.51	CCC(C)Oc1cc(NC(=O)/C(C#N)=C(/C)O)c(F)cc1-c1ccccc1C (centres undefined)	–
98.8	86.3	7.66	CCC(C)Oc1cc(NC(=O)/C(C#N)=C(/C)O)c(F)cc1-c1ccccc1Cl (centres undefined)	–
97.8	82.5	7.58	CCC(C)Oc1cc(NC(=O)/C(C#N)=C(/C)O)c(F)cc1-c1cccc(F)c1C (centres undefined)	–
96.9	83.1	7.54	CCC(C)Oc1cc(NC(=O)/C(C#N)=C(/C)O)c(F)cc1-c1ccc2c(c1)OCO2 (centres undefined)	–
85.5	47.2	–	CCC(C)Oc1cc(NC(=O)/C(C#N)=C(/C)O)c(F)cc1-c1cc(Cl)ccc1C (centres undefined)	–
97.4	89.9	7.89	CCC(C)Oc1cc(NC(=O)/C(C#N)=C(/C)O)c(F)cc1-c1cc2ccccc2o1 (centres undefined)	–
98.1	84.6	7.79	CCC(CC)Oc1cc(NC(=O)/C(C#N)=C(/C)O)c(F)cc1-c1cccc(OC)c1	–
95.4	68.5	7.48	CCC(C)Oc1cc(NC(=O)/C(C#N)=C(/C)O)c(F)cc1-c1ccc(Cl)cc1 (centres undefined)	–
92.5	58.5	–	C=CCOc1cc(NC(=O)/C(C#N)=C(/C)O)c(F)cc1-c1cccc(OC)c1	–
96.6	87.7	7.86	COc1cccc(-c2cc(F)c(NC(=O)/C(C#N)=C(/C)O)cc2OC(C)C)c1	pIC50 (Raji): 6.01
77.2	34.1	–	CCC(C)Oc1cc(NC(=O)/C(C#N)=C(/C)O)c(F)cc1-c1ccc(C(F)(F)F)cc1 (centres undefined)	–
96.2	77.6	7.52	COc1cccc(-c2cc(F)c(NC(=O)/C(C#N)=C(/C)O)cc2OCC(C)C)c1	–
96.9	80.4	7.54	CCC(C)Oc1cc(NC(=O)/C(C#N)=C(/C)O)c(F)cc1-c1ccccc1 (centres undefined)	–
79.7	40.3	–	COc1cccc(-c2cc(F)c(NC(=O)/C(C#N)=C(/C)O)cc2OCc2c(F)cccc2Cl)c1	–
92.9	58.6	–	C=C(C)COc1cc(NC(=O)/C(C#N)=C(/C)O)c(F)cc1-c1cccc(OC)c1	–
98.4	86.5	7.84	CCCC(C)Oc1cc(NC(=O)/C(C#N)=C(/C)O)c(F)cc1-c1cccc(OC)c1 (centres undefined)	–
98.8	85.1	7.65	CCC(C)Oc1cc(NC(=O)/C(C#N)=C(/C)O)c(F)cc1-c1cc(F)cc(F)c1 (centres undefined)	–
94.7	72.1	7.40	CCC(C)Oc1cc(NC(=O)/C(C#N)=C(/C)O)c(F)cc1-c1ccc(OC)cc1 (centres undefined)	–
99.3	92.4	8.10	CCC(C)Oc1cc(NC(=O)/C(C#N)=C(/C)O)c(F)cc1-c1cccc(C(F)(F)F)c1 (centres undefined)	pIC50 (Raji): 7.34; pIC50 (A-375): 6.30; pIC50 (HCT-116 [4]): 6.57; pIC50 (Kasumi 1): 6.30; pIC50 (KG-1): 6.00; pIC50 (U-937): 6.25; pIC50 (SUD4): 6.52; IC50 at 96 h [5]: > 10000 nM; IC50 at 96 h [6]: > 10000 nM; Activity [21]: 17.3 g; Activity [22]: Toxic; Activity [23]: Toxic; Activity [24]: Toxic; Activity [25]: Toxic

SMILES	inhibition [1] [%]	inhibition [2] [%]	pIC50 [3]	further results
CCC(C)Oc1cc(NC(=O)/C(C#N)=C(/C)O)c(F)cc1-c1ccc2ccccc2c1 (centres undefined)	99.8	95.6	8.18	pIC50 (Raji): 7.73; pIC50 (A-375): 6.57; pIC50 (HCT-116 [4]): 6.82; pIC50 (Kasumi 1): 6.89; pIC50 (KG-1): 6.21; pIC50 (U-937): 6.70; pIC50 (SUD4): 6.80; IC50 at 96 h [5]: 6480 nM; IC50 at 96 h [6]: 4710 nM; Activity [7]: Toxic; Activity [8]: Toxic
C/C(O)=C(\C#N)C(=O)Nc1cc(OC(C)C)c(-c2cccc(C(F)(F)F)c2)cc1F	–	–	7.99	Activity [9]: Non-Toxic; Activity [10]: Non-Toxic; pIC50 (Raji): 7.15; pIC50 (HCT-116 [4]): 6.52; Activity [11]: Toxic; Activity [12]: Non-Toxic; Activity [13]: Toxic; Activity [14]: Toxic; Activity [15]: Non-Toxic; Activity [16]: Non-Toxic; Activity [17]: Non-Toxic; Activity [18]: Non-Toxic; Activity [19]: Non-Toxic; inhibition in vivo at 30 mg/kg (HCT-116 [20]): 54.4%
